Experimental data published in ChEMBL document CHEMBL1201862, “PubChem BioAssay data set” (2004).
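Compound exposure: 48 hours, 5 concentrations, 96-well plates. Here, GI50 denotes the concentration required for 50% inhibition of growth.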 Active and inactive are the calls of the source. Cut-off read from the data, not from the text of the source: active = GI50 up to about 1.1 µM and inactive = higher.

Tests used:
Assay in all cases: DTP human tumour cell line panel, 48 h
786-0 = tested on: 786-0
A549 = tested on: A549
ACHN = tested on: ACHN
COLO 205 = tested on: COLO 205
HCT-15 = tested on: HCT-15
HL-60 = tested on: HL-60
HOP-62 = tested on: HOP-62
IGROV-1 = tested on: IGROV-1
KM12 = tested on: KM12
LOX IMVI = tested on: LOX IMVI
M14 = tested on: M14
NCI-H522 = tested on: NCI-H522
OVCAR-5 = tested on: OVCAR-5
SK-OV-3 = tested on: SK-OV-3
SN12C = tested on: SN12C
K562 = tested on: K562
RXF 393 = tested on: RXF 393
UACC-62 = tested on: UACC-62

Row | SMILES | GI50 (786-0) | GI50 (A549) | GI50 (ACHN) | GI50 (COLO 205) | GI50 (HCT-15) | GI50 (HL-60) | GI50 (HOP-62) | GI50 (IGROV-1) | GI50 (KM12) | GI50 (LOX IMVI) | GI50 (M14) | GI50 (NCI-H522) | GI50 (OVCAR-5) | GI50 (SK-OV-3) | GI50 (SN12C) | GI50 (K562) | GI50 (RXF 393) | GI50 (UACC-62)
1 | O=C(O)CSc1nnc(COc2ccccc2)n1-c1ccccc1 | > 100 µM (inactive) | > 100 µM (inactive) | > 100 µM (inactive) | > 100 µM (inactive) | > 100 µM | > 100 µM (inactive) | > 100 µM (inactive) | > 100 µM (inactive) | > 100 µM (inactive) | > 100 µM (inactive) | > 100 µM (inactive) | > 100 µM (inactive) | > 100 µM (inactive) | > 100 µM (inactive) | > 100 µM (inactive) | – | – | –
2 | CN1C(=O)CC(CC(=O)C2CCCCC2=O)CC1=O (stereo not drawn) | > 100 µM (inactive) | > 100 µM (inactive) | > 100 µM (inactive) | > 100 µM (inactive) | – | > 100 µM (inactive) | > 100 µM (inactive) | > 100 µM (inactive) | > 100 µM (inactive) | > 100 µM (inactive) | > 100 µM (inactive) | > 100 µM (inactive) | > 100 µM (inactive) | > 100 µM (inactive) | > 100 µM (inactive) | > 100 µM (inactive) | > 100 µM (inactive) | > 100 µM (inactive)
3 | Cc1ccc(NC(=O)CC2SC(=N)NC2=O)cc1C (stereo not drawn) | > 100 µM (inactive) | > 100 µM (inactive) | > 100 µM (inactive) | > 100 µM (inactive) | > 100 µM | > 100 µM (inactive) | > 100 µM (inactive) | > 100 µM (inactive) | > 100 µM (inactive) | > 100 µM (inactive) | > 100 µM (inactive) | > 100 µM (inactive) | > 100 µM (inactive) | > 100 µM (inactive) | > 100 µM (inactive) | > 100 µM (inactive) | – | > 100 µM (inactive)
4 | Brc1ccc(N2C[N+](c3ccc(Br)cc3)=NC(c3ccccc3)=N2)cc1 | 16 µM (inactive) | 18.6 µM (inactive) | 13.6 µM (inactive) | 19.1 µM (inactive) | 17.8 µM | 17.1 µM (inactive) | 17.2 µM (inactive) | 14.7 µM (inactive) | 14.9 µM (inactive) | – | 13.4 µM (inactive) | 19.6 µM (inactive) | 16.4 µM (inactive) | 19.6 µM (inactive) | 19 µM (inactive) | 10.9 µM (inactive) | 22.6 µM (inactive) | 14.8 µM (inactive)
5 | COc1ccc(C2c3cc(OC)c(OC)cc3C(Cc3ccc([N+](=O)[O-])cc3)C2c2ccc([N+](=O)[O-])cc2)cc1OC (stereo not drawn) | > 100 µM (inactive) | > 100 µM (inactive) | > 100 µM (inactive) | > 100 µM (inactive) | > 100 µM | > 100 µM (inactive) | > 100 µM (inactive) | > 100 µM (inactive) | > 100 µM (inactive) | > 100 µM (inactive) | > 100 µM (inactive) | 51.3 µM (inactive) | > 100 µM (inactive) | – | > 100 µM (inactive) | > 100 µM (inactive) | 27.7 µM (inactive) | > 100 µM (inactive)
6 | N#CC(C#N)=c1[nH]c2cccc3c2-c2c(cccc2c3=C(C#N)C#N)[nH]1 | > 100 µM (inactive) | > 100 µM (inactive) | – | > 100 µM (inactive) | > 100 µM | > 100 µM (inactive) | > 100 µM (inactive) | > 100 µM (inactive) | > 100 µM (inactive) | > 100 µM (inactive) | > 100 µM (inactive) | > 100 µM (inactive) | > 100 µM (inactive) | > 100 µM (inactive) | > 100 µM (inactive) | > 100 µM (inactive) | 79.6 µM (inactive) | > 100 µM (inactive)
7 | CN1Cc2c(nc(-c3ccc(Br)cc3)c[n+]2[O-])N(C)C1 | > 100 µM (inactive) | > 100 µM (inactive) | > 100 µM (inactive) | > 100 µM (inactive) | – | > 100 µM (inactive) | > 100 µM (inactive) | > 100 µM (inactive) | > 100 µM (inactive) | – | > 100 µM (inactive) | > 100 µM (inactive) | > 100 µM (inactive) | > 100 µM (inactive) | > 100 µM (inactive) | > 100 µM (inactive) | > 100 µM (inactive) | –
8 | COC(CN1C(=O)c2cccc3cccc(c23)C1=O)OC | > 100 µM (inactive) | 56.9 µM (inactive) | 41.5 µM (inactive) | > 100 µM (inactive) | 53.6 µM | 72.9 µM (inactive) | 43.7 µM (inactive) | > 100 µM (inactive) | 80.4 µM (inactive) | 53.5 µM (inactive) | > 100 µM (inactive) | – | > 100 µM (inactive) | > 100 µM (inactive) | 41.1 µM (inactive) | 68.5 µM (inactive) | > 100 µM (inactive) | 73.1 µM (inactive)
9 | CC(=O)OCC1OC(N2C(=O)[C@@H](Oc3ccccc3)[C@H]2/C=C/c2ccccc2)C(OC(C)=O)C(OC(C)=O)C1OC(C)=O (stereo partly drawn) | > 100 µM (inactive) | > 100 µM (inactive) | > 100 µM (inactive) | > 100 µM (inactive) | > 100 µM | > 100 µM (inactive) | 40.1 µM (inactive) | > 100 µM (inactive) | – | > 100 µM (inactive) | > 100 µM (inactive) | > 100 µM (inactive) | > 100 µM (inactive) | > 100 µM (inactive) | > 100 µM (inactive) | > 100 µM (inactive) | > 100 µM (inactive) | > 100 µM (inactive)
10 | O=C(c1ccc(Cl)cc1Cl)C1[C@H]2C(=O)N(c3ccc(Cc4ccc(N5C(=O)[C@@H]6ON(c7ccccc7)C(C(=O)c7ccc(Cl)cc7Cl)[C@@H]6C5=O)cc4)cc3)C(=O)[C@H]2ON1c1ccccc1 (stereo partly drawn) | > 50 µM (inactive) | > 50 µM (inactive) | > 50 µM (inactive) | > 50 µM (inactive) | > 50 µM | > 50 µM (inactive) | > 50 µM (inactive) | > 50 µM (inactive) | > 50 µM (inactive) | > 50 µM (inactive) | > 50 µM (inactive) | > 50 µM (inactive) | > 50 µM (inactive) | > 50 µM (inactive) | > 50 µM (inactive) | > 50 µM (inactive) | > 50 µM (inactive) | > 50 µM (inactive)
11 | CC(=O)NC(C=O)C(O[C@H](C)C(=O)NC(C)C(=O)NC(CCC(N)=O)C(=O)OCc1ccccc1)C(O)C(O)COC(=O)CCNc1c2ccccc2nc2cccc([N+](=O)[O-])c12 (stereo partly drawn) | 4.56 µM (inactive) | 2.23 µM (inactive) | 2.94 µM (inactive) | 1.29 µM (inactive) | 11.4 µM | 11.5 µM (inactive) | 2.95 µM (inactive) | > 100 µM (inactive) | 1.91 µM (inactive) | 14.6 µM (inactive) | 1.9 µM (inactive) | 1.62 µM (inactive) | 3.44 µM (inactive) | – | 2.02 µM (inactive) | 2.51 µM (inactive) | 3.96 µM (inactive) | 3.23 µM (inactive)
12 | COc1ccc(CCC2c3cc(OC)c(OC)cc3CCN2C)cc1OC (stereo not drawn) | > 100 µM (inactive) | > 100 µM (inactive) | > 100 µM (inactive) | > 100 µM (inactive) | > 100 µM | > 100 µM (inactive) | > 100 µM (inactive) | > 100 µM (inactive) | > 100 µM (inactive) | > 100 µM (inactive) | > 100 µM (inactive) | > 100 µM (inactive) | > 100 µM (inactive) | > 100 µM (inactive) | > 100 µM (inactive) | > 100 µM (inactive) | > 100 µM (inactive) | > 100 µM (inactive)
13 | CC1C=C(CCCCCCCCCCCC[C@@H](O)[C@@H]2CC[C@@H]([C@@H]3CC[C@@H](C(O)CCCCCCCCCCCCC4=C[C@H](C)OC4=O)O3)O2)C(=O)O1 (stereo partly drawn) | > 100 µM (inactive) | 4.5 µM (inactive) | > 100 µM (inactive) | 41.2 µM (inactive) | 57.5 µM | 5.41 µM (inactive) | > 100 µM (inactive) | > 71.1 µM (inactive) | > 68.1 µM (inactive) | 12.2 µM (inactive) | > 100 µM (inactive) | 1.28 µM (inactive) | > 100 µM (inactive) | > 100 µM (inactive) | > 100 µM (inactive) | 0.993 µM (active) | > 96.8 µM (inactive) | > 100 µM (inactive)
14 | COC(=O)CC1C[C@H](C#N)N(C(=O)c2ccccc2)C[C@@H]1CC[N+](=O)[O-] (stereo partly drawn) | > 100 µM (inactive) | > 100 µM (inactive) | > 100 µM (inactive) | > 100 µM (inactive) | > 100 µM | > 100 µM (inactive) | > 100 µM (inactive) | > 100 µM (inactive) | > 100 µM (inactive) | > 100 µM (inactive) | > 100 µM (inactive) | – | > 100 µM (inactive) | > 100 µM (inactive) | > 100 µM (inactive) | > 100 µM (inactive) | > 100 µM (inactive) | > 100 µM (inactive)
15 | CCN(CC)C(=S)S [DITIOCARB SODIUM] | 67.9 µM (inactive) | – | 53.7 µM (inactive) | 0.0713 µM (active) | > 62.5 µM | 0.294 µM (active) | > 100 µM (inactive) | – | 0.646 µM (active) | > 55.5 µM (inactive) | 41.7 µM (inactive) | 0.103 µM (active) | > 100 µM (inactive) | > 100 µM (inactive) | > 70 µM (inactive) | 0.138 µM (active) | > 57.4 µM (inactive) | 0.388 µM (active)
16 | COCC(O)Cn1ccnc1[N+](=O)[O-] (stereo not drawn) [MISONIDAZOLE] | > 100 µM (inactive) | > 100 µM (inactive) | > 100 µM (inactive) | > 100 µM (inactive) | > 100 µM | > 100 µM (inactive) | > 100 µM (inactive) | – | > 100 µM (inactive) | > 100 µM (inactive) | > 100 µM (inactive) | > 100 µM (inactive) | > 100 µM (inactive) | > 100 µM (inactive) | > 100 µM (inactive) | > 100 µM (inactive) | – | –
